Assay results taken from patent publication US20030198941A1, “Method for making an HIV vaccine” (priority 2000, published 2003).
Several values for one entry are separate records, joined by “and”; a condition that tells them apart may be missing. Equal entries are not always repeated. Where two headings read alike, the source gives them in different places.

What was measured:
[1] = test system: epitope-specific CD8+ PBMC of SIV-infected animals; format: cell-based, rhesus macaque; conditions: for avidity of CTL response: PBMC specific for late escaping epitopes; for EC50: read-out: ½maximal IFN-γ release (peptide concentration)
[2] = test system: Tat SL8- and Gag CM9-specific CTL lines; assay: 51Cr-release cytotoxicity assay with peptide dilutions, in vitro CTL lines; format: cell-based, rhesus macaque; conditions: CTL lines generated with high (1 μM) and low (1 nM) peptide; read-out: ½maximal specific lysis (peptide concentration)
[3] = test system: epitope-specific CTL lines; assay: Intracellular IFN-γ staining (ICS) with peptide dilutions, in vitro CTL lines; format: cell-based, rhesus macaque; conditions: for avidity of CTL response: CTL lines against acute escaped epitopes
[4] = molecular target: rhesus MHC class I molecule Mamu-A*01 (rhesus macaque); assay: competition with 125I-labeled […] for Mamu-A*01; relative to […]
[5] = molecular target: rhesus MHC class I molecule Mamu-A*01 (rhesus macaque); assay: competition with 125I-labeled […] for Mamu-A*01; (1.0-relative binding average)x100
[6] = molecular target: rhesus MHC class I molecule Mamu-A*01 (rhesus macaque)
[7] = test system: rhesus MHC class I molecule Mamu-A*01; assay: Mamu-A*01 peptide binding assay (inhibition of binding of a radiolabeled probe peptide); set-up: species or system rhesus macaque; conditions: for % Binding reduction: (1.0-relative binding average)x100, versus index peptide STPESANL; for IC50: soluble Mamu-A*01; for Relative Binding Average: relative to the binding affinity of Tat28-35 STPESANL to Mamu-A*01
Method: Quantitative assays for the binding of peptides to soluble Mamu-A*01 molecules on the basis of the inhibition of binding of a radiolabeled standard probe peptide to detergent-solubilized MHC molecules were performed as previously described (Allen, T. M., et al., J. Immunol. 160:6062-6071, 1998). A position 1 C→A analog of the SIV gag 181-190 peptide ([…]) was utilized as the radiolabeled probe. In the case of competitive assays, the concentration of peptide yielding 50% inhibition of the binding of the radiolabeled probe peptide was calculated. Peptides were initially tested at one or two high doses. The IC50 of peptides yielding positive inhibition were then determined in subsequent experiments, in which two to six further dilutions were tested, as necessary. Since under the conditions to be utilized, where [label]<[MHC] and IC50 ≧[MHC], the measured IC50 values are reasonable approximations of the true Kd values. Each competitor peptide was tested in two to four completely independent experiments. As a positive control, in each experiment the unlabeled version of the radiolabeled probe was tested and its IC50 measured.

[8] = test system: CTL lines stimulated with the SL8 index peptide; assay: CTL analyses of SL8-stimulated T-cell lines against index and variant peptides; format: cell-based, rhesus macaque; conditions: E:T ratio 25:1, three peptide dilutions
Method: FIG. 3 is a set of six graphs describing CTL analyses of CD8-positive T-lymphocyte cell lines stimulated with SL8 peptide. Cell lines were stimulated with the index peptide (SL8) and autologous B-LCL. After 2 weeks in culture, these T-cell lines were used in CTL analyses at an Effector:Target (E:T) ratio of 25:1 with the index peptide and the variants. Three different dilutions of peptides were tested.
CTL cultures were established from peripheral blood samples of SIV-infected rhesus macaques drawn in EDTA tubes and CTL were cultured and assayed as previously described (Evans, D. T., et al., supra, 1999).

[9] = competition against 125-labeled peptide […]
[10] = competition against 125-labeled peptide ATPYDINQML

ARRHRILDIYL [Nef_AL11] was tested, and the “avidity of CTL response” value ([1]; ICS) was “low avidity”.
With CTPYDINQM [Gag CM9] the EC50 [2] was 1 to 10 nM and 1 to 40 nM and the EC50 [1] was 8 nM.
For GDYKLVEI [Env_GI8], the “avidity of CTL response” value ([1]; ICS) was “low avidity”.
For GLDKGLSSL [GL9], the “avidity of CTL response” value [3] was “high avidity”.
In the case of KRQQELLRL [Env_KL9], the “avidity of CTL response” value ([1]; ICS) is reported as “low avidity”.
In the case of STPESANL, the EC50 [2] is reported as 0.05 to 0.1 nM, the EC50 ([1]; epitope-specific PBMC, ICS) is reported as 0.11 nM and the EC50 ([3]; CTL lines generated in vitro, read-out: ½maximal IFN-γ production (peptide concentration)) is reported as less than 0.5 nM.
Work on “Tat28-35 variant ------P (proline at P8) (peptide)” yielded a Relative Binding Average [4] of 0.009 and a % Binding reduction [5] greater than 99%.
Substance “Tat28-35 variant ------Q (glutamine at P8) (peptide)” has a Relative Binding Average [4] of 0.003 and a % Binding reduction [5] greater than 99%.
“Tat28-35 variant ------R (arginine at P8) (peptide)” showed a Relative Binding Average [4] of 0.003 and a % Binding reduction [5] greater than 99%.
In the case of “Tat28-35 variant ----L-- (leucine at P5) (peptide)”, the Relative Binding Average [4] is reported as 0.155 and the % Binding reduction [5] is reported as 85%.
In the case of “Tat28-35 variant -I---- (isoleucine at P2) (peptide)”, the Relative Binding Average [4] is reported as 0.009 and the % Binding reduction [5] is reported as greater than 99%.
With “Tat28-35 variant P------ (proline at P1) (peptide)” the % Binding reduction [6] was 67% and the Relative Binding Average [4] was 0.43.
In the case of YTSGPGIRY [YY9], the “avidity of CTL response” value [3] is reported as “high avidity”.
For “variant of the Tat STPESANL epitope with arginine at P8 [------R]”, the “% Binding reduction” value [7] was greater than 99%, the IC50 [7, 9] was 15100 nM and the “Relative Binding Average” value [7] was 0.003.
“variant of the Tat STPESANL epitope with glutamine at P8 [------Q]” was tested, and the “% Binding reduction” value [7] was greater than 99%, the IC50 [7, 10] was 13200 nM and the “Relative Binding Average” value [7] was 0.003.
“variant of the Tat STPESANL epitope with isoleucine at P2 [-I----]” was tested, and the “% Binding reduction” value [7] was greater than 99%, the IC50 [7, 9] was 4610 nM and the “Relative Binding Average” value [7] was 0.009.
“variant of the Tat STPESANL epitope with leucine at P5 [----L--]” was tested, and the “% Binding reduction” value [7] was 85%, the “% Binding reduction” value ([7]; listed as leucine at P5) was greater than 80% and the “% Binding reduction” value ([7]; listed as leucine substitution at P5) was “more than 80%”. The IC50 [7, 10] was 281 nM, the “Relative Binding Average” value [7] was 0.155 and the “CTL recognition / sensitizing targets for CTL lysis” value [8] was “least efficient at sensitizing targets for CTL lysis”.
“variant of the Tat STPESANL epitope with proline at P1 [P------]” was tested, and the “% Binding reduction” value [7] was 67%, the “% Binding reduction” value ([7]; listed as proline at P1) was “more than 50%” and the “% Binding reduction” value ([7]; listed as proline substitution at P1) was “more than 50%”. The IC50 [7, 9] was 100 nM and the “Relative Binding Average” value [7] was 0.43.
“variant of the Tat STPESANL epitope with proline at P8 [------P]” was tested, and the “% Binding reduction” value [7] was greater than 99%, the IC50 [7, 9] was 4570 nM and the “Relative Binding Average” value [7] was 0.009.
